Laboratory results from PMC9315260, “Diarylamine-Guided Carboxamide Derivatives: Synthesis, Biological Evaluation, and Potential Mechanism of Action” (Frontiers in Chemistry, 2022).

How the values were obtained:
[1] = tested on: SGC-7901 (human gastric cancer cell line); assay: MTT in vitro cytotoxicity assay, SGC-7901; assay type: cell-based; conditions: SGC-7901, Table 1, MTT, mean ± S.D.
Method: (§1) The lead molecules A2 and all newly prepared diarylamine derivatives B1-13 and C1-11 were evaluated for their in vitro cytotoxic effects against SGC-7901, A875, HepG2 and MARC145 cell lines by the classical MTT [3-(4,5-dimethylthiazol-2-yl)-2,5-diphenyl tetrazolium bromide] assay ([Alley et al., 1988]; [Ke et al., 2012]; [Shi et al., 2012]; [Yu et al., 2015]; [Ke et al., 2019]; [Xu et al., 2019]; [Huang et al., 2021]) using 5-FU (5-Fluorouracil) as a control.
(§2) The cytotoxicity of target compounds was determined with MTT assay ([Alley et al., 1988]; [Ke et al., 2012]; [Shi et al., 2012]; [Yu et al., 2015]; [Ke et al., 2019]; [Xu et al., 2019]; [Huang et al., 2021]). SGC-7901, A875, HepG2 and MARC145 cell lines were obtained from Hubei Biopesticide Engineering Research Centre. All data of the experiment were analyzed with SPSS software, and all assay were performed in triplicate on three independent experiments, and measurement data were expressed as the mean ± S.D.
(§3) The in vitro cytotoxicity of the synthesized compounds against different cell lines (SGC-7901, A875, HepG2 and MARC145) was measured with MTT assay. All the data of the experiment were analyzed with SPSS software, and the 50% inhibitory concentrations (IC50) of each compound for the different cell lines were determined. A control was run for each test, and all assays were performed in triplicate on three independent experiments, and measurement data were expressed as the mean ± S.D.

[2] = tested on: A875 (human melanoma cell line); assay: MTT in vitro cytotoxicity assay, A875; assay type: cell-based; conditions: A875, Table 1, MTT, mean ± S.D.
Method: as §1, §2, §3

[3] = tested on: HepG2 (human hepatocellular liver carcinoma cell line); assay: MTT in vitro cytotoxicity assay, HepG2; assay type: cell-based; conditions: HepG2, Table 1, MTT, mean ± S.D.
Method: as §1, §2, §3

[4] = MTT in vitro cytotoxicity assay, MARC145; assay type: cell-based, African green monkey; conditions: African green monkey, MARC145 cells (kidney cell line, subclone of MA-104), Table 1; MTT; mean ± S.D.
Method: as §1, §2, §3

SMILES: NC(=O)c1ccccc1NC(=O)c1ccccc1Nc1cccc(C(F)(F)F)c1 [B1, N-(2-Carbamoylphenyl)-2-((3-(trifluoromethyl)phenyl)amino)benzamide]
- IC50 [1]: > 100 µM
- IC50 [2]: > 100 µM
- IC50 [3]: > 100 µM
- IC50 [4]: > 100 µM
- melting point: 136 to 137 °C

SMILES: CNC(=O)c1ccccc1NC(=O)c1ccccc1Nc1cccc(C(F)(F)F)c1 [B2, N-Methyl-2-(2-((3-(trifluoromethyl)phenyl)amino)benzamido)benzamide]
- IC50 [1]: > 96 µM
- IC50 [2]: > 96 µM
- IC50 [3]: > 96 µM
- IC50 [4]: > 96 µM

SMILES: NC(=O)c1cc(F)cc(Br)c1NC(=O)c1ccccc1Nc1cccc(C(F)(F)F)c1 [B3, 3-Bromo-5-fluoro-2-(2-((3-(trifluoromethyl)phenyl)amino)benzamido)benzamide]
- IC50 [1]: 22.5 ± 4.04 µM
- IC50 [2]: > 80 µM
- IC50 [3]: > 80 µM
- IC50 [4]: 38 ± 0.81 µM
- melting point: 198 to 199 °C

SMILES: CNC(=O)c1cc(F)cc(Br)c1NC(=O)c1ccccc1Nc1cccc(C(F)(F)F)c1 [B4, 3-Bromo-5-fluoro-N-methyl-2-(2-((3-(trifluoromethyl)phenyl)amino)benzamido)benzamide]
- IC50 [1]: > 78 µM
- IC50 [2]: > 78 µM
- IC50 [3]: > 78 µM
- IC50 [4]: > 78 µM
- melting point: 189 to 190 °C

SMILES: Cc1cccc(C(N)=O)c1NC(=O)c1ccccc1Nc1cccc(C(F)(F)F)c1 [B5, N-(2-Carbamoyl-6-methylphenyl)-2-((3-(trifluoromethyl)phenyl)amino)benzamide]
- IC50 [1]: > 97 µM
- IC50 [2]: > 97 µM
- IC50 [3]: > 97 µM
- IC50 [4]: > 97 µM

SMILES: CNC(=O)c1cccc(C)c1NC(=O)c1ccccc1Nc1cccc(C(F)(F)F)c1 [B6, N,3-Dimethyl-2-(2-((3-(trifluoromethyl)phenyl)amino)benzamido)benzamide]
- IC50 [1]: > 94 µM
- IC50 [2]: > 94 µM
- IC50 [3]: > 94 µM
- IC50 [4]: > 94 µM

SMILES: NC(=O)c1ccc(Cl)cc1NC(=O)c1ccccc1Nc1cccc(C(F)(F)F)c1 [B7, N-(2-Carbamoyl-5-chlorophenyl)-2-((3-(trifluoromethyl)phenyl)amino)benzamide]
- IC50 [1]: > 92 µM
- IC50 [2]: > 92 µM
- IC50 [3]: > 92 µM
- IC50 [4]: > 92 µM
- melting point: 176 to 177 °C

SMILES: CNC(=O)c1ccc(Cl)cc1NC(=O)c1ccccc1Nc1cccc(C(F)(F)F)c1 [B8, 4-Chloro-N-methyl-2-(2-((3-(trifluoromethyl)phenyl)amino)benzamido)benzamide]
- IC50 [1]: > 89 µM
- IC50 [2]: > 89 µM
- IC50 [3]: > 89 µM
- IC50 [4]: > 89 µM
- melting point: 152 to 153 °C

SMILES: NC(=O)c1cc(Cl)ccc1NC(=O)c1ccccc1Nc1cccc(C(F)(F)F)c1 [B9, N-(2-Carbamoyl-4-chlorophenyl) -2-((3-(trifluoromethyl)phenyl)amino)benzamide]
- IC50 [1]: > 92 µM
- IC50 [2]: > 92 µM
- IC50 [3]: > 92 µM
- IC50 [4]: > 92 µM

SMILES: CNC(=O)c1cc(Cl)ccc1NC(=O)c1ccccc1Nc1cccc(C(F)(F)F)c1 [B10, 5-Chloro-N-methyl-2-(2-((3-(trifluoromethyl)phenyl)amino)benzamido)benzamide]
- IC50 [1]: 39.4 ± 8.96 µM
- IC50 [2]: > 89 µM
- IC50 [3]: 49.9 ± 9.26 µM
- IC50 [4]: 38 ± 9.84 µM
- melting point: 190 to 191 °C

SMILES: NC(=O)c1c(Cl)cccc1NC(=O)c1ccccc1Nc1cccc(C(F)(F)F)c1 [B11, N-(2-Carbamoyl-3-chlorophenyl)-2-((3-(trifluoromethyl)phenyl)amino)benzamide]
- IC50 [1]: > 92 µM
- IC50 [2]: > 92 µM
- IC50 [3]: > 92 µM
- IC50 [4]: > 92 µM
- melting point: 194 to 195 °C

SMILES: CNC(=O)c1c(Cl)cccc1NC(=O)c1ccccc1Nc1cccc(C(F)(F)F)c1 [B12, 2-Chloro-N-methyl-6-(2-((3-(trifluoromethyl)phenyl)amino)benzamido)benzamide]
- IC50 [1]: > 89 µM
- IC50 [2]: > 89 µM
- IC50 [3]: > 89 µM
- IC50 [4]: > 89 µM
- melting point: 178 to 179 °C
